The results in this text go back to ChEMBL document CHEMBL5380806, “Cyclopropenone, Cyclopropeniminium Ion, and Cyclopropenethione as Novel Electrophilic Warheads for Potential Target Discovery of Triple-Negative Breast Cancer” (J Med Chem, 2023).

Data set [1] has as its system MDA-MB-231. Kind of data set: Induction of cell cycle arrest in human MDA-MB-231 cells assessed as accumulation of cells at S phase at 0.156 uM incubated for 24 hrs by PI/RNase staining based flow cytometric analysis relative to control. In kind it is functional. A general note: A flow cytometer gives signals particle by particle.
The subject of data set [2] is MDA-MB-231. Kind of data set: Induction of cell cycle arrest in human MDA-MB-231 cells assessed as G2/M phase cells at 0.156 uM incubated for 24 hrs by PI/RNase staining based flow cytometric analysis relative to control. In kind it is functional.
In data set [3] the test system is MDA-MB-231. Kind of data set: Induction of cell cycle arrest in human MDA-MB-231 cells assessed as G2/M phase cells at 0.625 uM incubated for 24 hrs by PI/RNase staining based flow cytometric analysis relative to control. In kind it is functional.
For data set [4], the target named is T1, Aldehyde dehydrogenase, mitochondrial (Homo sapiens) (UniProt P05091).
T1 sequence (whole entry): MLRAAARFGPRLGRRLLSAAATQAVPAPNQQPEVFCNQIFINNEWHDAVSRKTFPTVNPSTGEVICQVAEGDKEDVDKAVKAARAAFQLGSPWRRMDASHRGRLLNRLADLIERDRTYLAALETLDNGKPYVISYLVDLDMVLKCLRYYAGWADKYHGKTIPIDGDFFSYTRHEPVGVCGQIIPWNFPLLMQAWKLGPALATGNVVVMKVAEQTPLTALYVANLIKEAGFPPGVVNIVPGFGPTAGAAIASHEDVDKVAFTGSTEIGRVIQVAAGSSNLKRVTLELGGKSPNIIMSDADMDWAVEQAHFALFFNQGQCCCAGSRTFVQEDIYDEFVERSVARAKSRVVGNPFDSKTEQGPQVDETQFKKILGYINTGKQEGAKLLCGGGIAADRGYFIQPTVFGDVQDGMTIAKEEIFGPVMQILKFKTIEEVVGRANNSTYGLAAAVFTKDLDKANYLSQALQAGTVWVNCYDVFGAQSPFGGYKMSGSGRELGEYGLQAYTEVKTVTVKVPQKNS
Kind of data set: Binding affinity to ALDH2 in human MDA-MB-231 cells at 20 uM incubated for 2 to 5 hrs by pull down based LC-MS analysis. The format is cell-based. Conditions: time 2-5 hrs.

Data set [5] concerns the target T2, Double-stranded RNA-specific adenosine deaminase (Homo sapiens) (UniProt P55265).
T2 sequence (whole entry): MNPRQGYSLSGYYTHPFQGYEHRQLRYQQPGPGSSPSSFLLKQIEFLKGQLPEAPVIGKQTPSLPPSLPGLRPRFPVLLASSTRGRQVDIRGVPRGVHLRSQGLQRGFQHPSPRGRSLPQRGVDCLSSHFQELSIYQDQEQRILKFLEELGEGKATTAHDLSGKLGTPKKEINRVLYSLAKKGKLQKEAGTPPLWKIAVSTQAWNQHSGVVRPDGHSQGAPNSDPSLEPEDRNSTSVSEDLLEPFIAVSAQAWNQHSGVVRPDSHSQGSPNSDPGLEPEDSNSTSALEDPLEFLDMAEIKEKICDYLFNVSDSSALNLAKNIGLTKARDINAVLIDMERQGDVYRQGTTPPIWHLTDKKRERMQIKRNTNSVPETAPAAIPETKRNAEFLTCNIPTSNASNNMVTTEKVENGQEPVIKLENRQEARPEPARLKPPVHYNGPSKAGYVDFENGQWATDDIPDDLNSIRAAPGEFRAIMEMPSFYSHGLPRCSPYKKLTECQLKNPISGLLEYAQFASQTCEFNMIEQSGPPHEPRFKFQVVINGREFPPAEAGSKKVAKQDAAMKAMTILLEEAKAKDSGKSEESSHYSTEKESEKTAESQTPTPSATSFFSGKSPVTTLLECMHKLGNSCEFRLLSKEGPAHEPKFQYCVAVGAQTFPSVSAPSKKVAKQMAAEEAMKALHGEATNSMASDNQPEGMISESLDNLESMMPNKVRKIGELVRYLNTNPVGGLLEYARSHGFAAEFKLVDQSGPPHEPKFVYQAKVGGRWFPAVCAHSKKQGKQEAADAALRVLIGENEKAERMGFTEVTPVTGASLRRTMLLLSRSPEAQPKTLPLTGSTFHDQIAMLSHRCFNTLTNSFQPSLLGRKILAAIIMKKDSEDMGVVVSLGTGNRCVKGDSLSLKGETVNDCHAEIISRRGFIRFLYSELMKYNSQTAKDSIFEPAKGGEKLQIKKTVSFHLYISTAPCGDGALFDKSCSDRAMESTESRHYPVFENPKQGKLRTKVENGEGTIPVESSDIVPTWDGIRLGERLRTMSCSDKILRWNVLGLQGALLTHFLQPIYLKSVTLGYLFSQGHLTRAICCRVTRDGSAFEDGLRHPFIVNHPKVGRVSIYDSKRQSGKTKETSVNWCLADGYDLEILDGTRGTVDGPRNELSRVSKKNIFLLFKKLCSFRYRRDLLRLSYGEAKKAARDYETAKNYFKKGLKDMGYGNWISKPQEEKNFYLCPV
Kind of data set: Binding affinity to ADAR in human MDA-MB-231 cells at 20 uM incubated for 2 to 5 hrs by pull down based LC-MS analysis. In kind it is cell-based. To be noted: time 2-5 hrs.

In data set [6] the test system is MDA-MB-231. Kind of data set: Induction of apoptosis in human MDA-MB-231 cells transfected with FABP5 siRNA assessed as viable cells at 5 uM incubated for 48 hrs by Annexin V-FITC/PI staining based analysis (reference value: 85.75%). In kind it is functional. Conditions: read-out: Activity.
Data set [7] concerns MDA-MB-231. Kind of data set: Induction of apoptosis in human MDA-MB-231 cells transfected with FABP5 siRNA assessed as early apoptotic cells at 5 uM incubated for 48 hrs by Annexin V-FITC/PI staining based analysis (reference value: 3.25%). The format is functional.
The subject of another data set is L02. Kind of data set: Cytotoxicity against human HL7702 cells assessed as inhibition of cell growth incubated for 72 hrs by CCK8 assay. The format is toxicity, cell-based. Conditions: l02, 72 h. Background: Tetrazolium dyes change colour on reduction, which living cells bring about.
For data set [8], the system named is GTPase KRas (Homo sapiens), P01116 [G12C]. Kind of data set: Binding affinity to N-terminal 6his/SUMO-tagged KRAS G12C mutant (unknown origin) expressed in Escherichia coli BL21 (DE3) cells at 10 uM incubated for 2 to 7 hrs by fluorescence based SDS-PAGE analysis. To be noted: time 2-7 hrs.
Chain of GTPase KRas (Homo sapiens), P01116 [G12C] (P01116 whole entry G12C): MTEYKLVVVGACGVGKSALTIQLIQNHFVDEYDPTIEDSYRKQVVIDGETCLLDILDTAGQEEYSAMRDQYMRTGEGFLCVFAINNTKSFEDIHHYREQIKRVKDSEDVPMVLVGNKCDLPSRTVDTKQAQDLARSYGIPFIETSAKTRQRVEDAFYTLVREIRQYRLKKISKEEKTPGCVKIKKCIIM

Active and inactive are the calls of the source. The calls are words filed in the database; no cut-off is given here.

Turning to `C#CCOc1ccc(-c2cc2=O)cc1`, the Activity with MDA-MB-231 [1] was 13.79%; in the data set with MDA-MB-231 [2], 26.86%; with MDA-MB-231 [3] it was 12.03%; with MDA-MB-231 [7], 30.82%; in the data set on L02, “Non-Toxic”. Also, the outcome in data set [4], in [5] and in data set [8] was Active. Besides, in the data set on MDA-MB-231 [6], the viability at 5 µM amounted to 28.9%.
